Values quoted from earlier work, collected in patent US20260226377A1, “BIODEGRADABLE MICROCAPSULES CONTAINING LOW LOG P FRA-GRANCE” (priority 2023, published 2026).

Conditions: octanol/water; source of values not stated (b29 refers to reported values, Pomona92 database)

O=Cc1ccccc1 [benzaldehyde]
logP value: 1.70
